In publication PMC11514582, “Leveraging the Aggregated Protein Dye YAT2150 for Malaria Chemotherapy” (Pharmaceutics, 2024):
Values after ≈ are worked out from the molar mass of the structure shown. Where two headings read alike, the source gives them in different places.

Assays:
HUVEC = settings: cited from earlier work
[1] = test system: MCF7 human breast adenocarcinoma; settings: cited from earlier work
[2] = cited from earlier work
[3] = Bidirectional permeability in Caco-2 cell monolayer; settings: human
[4] = test system: P. berghei ookinete development; assay: Ex vivo gametocyte-to-ookinete transition inhibition (ookinete maturation) assay; format: cell-based, Plasmodium berghei; settings: up to a concentration of 2 µM
Experimental: Eight days before ookinete production, 100 µL of a red blood cell (RBC) pellet containing the Plasmodium berghei circumsporozoite protein and thrombospondin-related adhesive protein (TRAP)-related protein (CTRP)-green fluorescent protein (GFP) strain (CTRP-GFP, which expresses GFP when reaching ookinete stage, kindly provided by Inga Siden-Kiamos) in cryopreservation solution (RBC pellet:RPMI:30% glycerol in water, 1:1:2) was administered intraperitoneally (i.p.) to a BALB/c mouse (Charles River Laboratories, Wilmington, MA, USA). […] The effect of drugs on gametocyte-to-ookinete conversion was assessed in three independent replicas by plating 120 µL of each culture treated with serial dilutions of the compounds in 96-well plates and incubated for 24 h at 21 °C with orbital shaking at 50 rpm (modified from). Finally, samples diluted 1:100 in PBS were analyzed in an LSRFortessa flow cytometer (BD Biosciences, Franklin Lakes, NJ, USA) set up with the 4 lasers, 20 parameters standard configuration. The GFP positive cell population was counted (λexcitation: 488 nm; λemission: 525/40 nm) using BD FACSDiva software 6.1.3 (BD Biosciences) for data collection and Flowing Software 2.5.1 (Turku Center for Biotechnology, Turku, Finland) for analysis.

[5] = test system: P. falciparum asexual blood stages; settings: cited from earlier work
CYP1A2 = target: T1, CYP1A2 (Homo sapiens, UniProt P05177); assay: in vitro
T1 sequence (P05177 1-516): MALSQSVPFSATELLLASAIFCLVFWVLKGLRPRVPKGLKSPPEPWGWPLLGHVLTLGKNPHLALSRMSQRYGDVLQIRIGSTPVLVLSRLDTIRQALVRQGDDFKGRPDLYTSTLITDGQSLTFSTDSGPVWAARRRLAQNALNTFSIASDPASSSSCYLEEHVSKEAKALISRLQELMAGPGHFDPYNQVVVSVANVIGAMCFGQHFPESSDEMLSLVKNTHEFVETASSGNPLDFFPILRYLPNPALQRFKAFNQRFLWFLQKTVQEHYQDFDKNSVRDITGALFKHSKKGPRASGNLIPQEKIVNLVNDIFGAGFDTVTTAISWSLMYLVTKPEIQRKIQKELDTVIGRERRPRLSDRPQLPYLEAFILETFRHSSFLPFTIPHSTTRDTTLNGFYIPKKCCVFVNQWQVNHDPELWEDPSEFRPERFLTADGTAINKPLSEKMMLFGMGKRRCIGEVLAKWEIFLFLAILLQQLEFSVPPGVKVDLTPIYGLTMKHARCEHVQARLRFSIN

[6] = Human plasma protein binding (Rapid Equilibrium Dialysis); format: in vitro ADME; settings: pH 7.2, RED, 4 h at 37 °C
Experimental: The assay was carried out by Rapid Equilibrium Dialysis (RED). The compounds were dissolved at 5 μM in human plasma and added to the corresponding insert of the RED device (Thermo Fisher Scientific, Inc., Waltham, MA, USA), and dialysis was performed for 4 h at 37 °C in […], 25 mM tris-HCl, pH 7.2 (Tris BupH^TM, Thermo Fisher Scientific, Inc.). Then, 50-µL aliquots from each chamber were transferred to empty vials, to which 50 µL of dialysis buffer was added. As control, 50 µL of plasma was mixed with 50 µL of buffer. Three hundred µL of acetonitrile was added to all the samples, which were analyzed by ultra-performance liquid chromatography with tandem mass spectrometry as previously described.

[7] = human, hepatocytes
CYP2D6 = CYP2D6 (Homo sapiens, UniProt P10635); assay: Cytochrome inhibition assay CYP2D6
Chain of CYP2D6 (P10635 whole entry): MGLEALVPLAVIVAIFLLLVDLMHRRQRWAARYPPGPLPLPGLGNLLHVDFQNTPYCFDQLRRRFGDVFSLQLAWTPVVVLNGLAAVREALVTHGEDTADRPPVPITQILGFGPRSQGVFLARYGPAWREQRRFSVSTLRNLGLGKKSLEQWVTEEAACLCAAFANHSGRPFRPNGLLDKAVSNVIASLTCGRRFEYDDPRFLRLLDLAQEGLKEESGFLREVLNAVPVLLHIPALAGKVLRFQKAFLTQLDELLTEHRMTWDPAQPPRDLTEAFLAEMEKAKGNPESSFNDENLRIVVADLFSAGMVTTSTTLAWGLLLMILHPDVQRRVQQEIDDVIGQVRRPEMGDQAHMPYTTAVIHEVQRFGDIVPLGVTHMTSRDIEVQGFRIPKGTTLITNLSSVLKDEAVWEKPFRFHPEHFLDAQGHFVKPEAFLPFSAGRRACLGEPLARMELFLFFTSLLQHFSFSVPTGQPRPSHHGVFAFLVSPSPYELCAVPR

CYP2C9 = CYP2C9 (Homo sapiens, UniProt P11712); assay: in vitro
Chain of CYP2C9 (P11712 whole entry): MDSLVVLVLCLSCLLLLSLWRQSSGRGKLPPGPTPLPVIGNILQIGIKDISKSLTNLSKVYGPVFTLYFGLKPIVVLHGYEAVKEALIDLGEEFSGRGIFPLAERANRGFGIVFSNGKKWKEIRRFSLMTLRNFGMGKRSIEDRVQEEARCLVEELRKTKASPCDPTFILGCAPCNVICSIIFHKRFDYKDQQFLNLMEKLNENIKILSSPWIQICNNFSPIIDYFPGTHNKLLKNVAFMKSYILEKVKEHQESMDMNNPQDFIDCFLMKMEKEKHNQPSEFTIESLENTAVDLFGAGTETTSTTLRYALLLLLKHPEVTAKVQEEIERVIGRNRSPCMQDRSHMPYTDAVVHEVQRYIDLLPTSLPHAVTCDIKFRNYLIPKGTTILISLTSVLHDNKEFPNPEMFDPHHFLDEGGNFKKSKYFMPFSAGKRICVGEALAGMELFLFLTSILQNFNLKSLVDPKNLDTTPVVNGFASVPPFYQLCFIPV

[8] = test system: protein aggregation in P. falciparum cultures; assay: ThT protein aggregation assay in P. falciparum cultures; format: cell-based, Plasmodium falciparum; settings: treated for 4 h at the IC50
Experimental: After this incubation, 9 mL of culture was removed and subjected to a second Percoll treatment to pellet the parasitized red blood cells, which were resuspended in 50 μL of lysis buffer, consisting of 4.5 mg/mL NaCl in H2O supplemented with 1× cOmplete^TM protease inhibitor cocktail (Roche, Basel, Switzerland), and treated as described elsewhere [13]. […] Only those samples with parasitemias between 30 and 70% relative to the control were considered for ThT analysis.

[9] = test system: P. falciparum asexual blood stages; assay: microbe, parasite or virus in culture; settings: Plasmodium falciparum
Experimental: The asexual blood stages of P. falciparum parasites of the 3D7 strain (Malaria Research and Reference Reagent Resource Center, Manassas, VA, USA) were cultured in group B human RBCs at 3% hematocrit, which was kept throughout the experiments, and incubated in RPMIc. Parasites were maintained at 37 °C under an atmosphere of 5% O2, 5% CO2, and 90% N2. […] The parasites were then cultured under standard conditions for 48 h, allowing for a complete replication cycle. After the incubation period, 3 µL of culture from each well was mixed with 197 µL of PBS containing 0.1 µM Syto 11 (Thermo Fisher Scientific, Inc.) to obtain a final concentration of 1 × 10^6 to 10 × 10^6 cells/mL. Parasitemia levels were measured using an LSRFortessa flow cytometer equipped with a standard configuration of four lasers and 20 parameters. Single-cell populations were identified on a forward-side scatter plot. […] The inhibition data were then transformed using sigmoidal fitting to determine IC50.
For stage arrest assays, P. falciparum cultures were tightly synchronized in schizont stages by repeated treatment with 70% Percoll (GE Healthcare, Chicago, IL, USA) [26, 27]. […] Pictures were taken with a Nikon Eclipse 50i microscope equipped with a DS-Fi1 camera (Nikon Corporation, Tokyo, Japan).

[10] = test system: P. falciparum gametocytes; settings: cited from earlier work
[11] = test system: liver stages of P. berghei in Huh7; settings: read-out: IC50 against liver stages of P. berghei; cited from earlier work
[12] = 3D7, read-out: in vitro IC50 as determined in our experimental setting

SMILES: N.N.[Cl][Pt][Cl] [Cisplatin]
- CC50 (HUVEC): 2350 ± 40 nM
- CC50 [1]: 16700 nM

SMILES: COc1cc2c(c(OC)c1OC)-c1ccc(OC)c(=O)cc1[C@@H](NC(C)=O)CC2 [Colchicine]
- Papp AB reported ([2]; ref 24 (supplement list)): 1.3 ×10⁻⁶ cm/s
- Papp BA reported ([2]; ref 24 (supplement list)): 5.4 ×10⁻⁶ cm/s
- Papp ([3]; Caco-2): 0.26 ± 0.02 ×10⁻⁶ cm/s
- Papp B→A ([3]; Caco-2): 8.98 ± 0.47 ×10⁻⁶ cm/s
- efflux ratio ([3]; Caco-2, Transport through Caco-2 Efflux ratio, reference compounds, tested in parallel): 35.3 ± 3
- efflux ratio ([3]; Caco-2, efflux ratios of reference compounds, as quoted in text from Supplementary Table S2): 33

SMILES: COc1cc2c(cc1OC)C(=O)C(CC1CCN(CCCNc3c4c(nc5cc(Cl)ccc35)CCCC4)CC1)C2 (stereo not shown) [DONE3TCl]
- effect on ookinete development [4]: much less significant effect
- IC50 ([5]; read-out: IC50 in in vitro P. falciparum asexual blood stage cultures): ~80 nM

SMILES: C[C@]12CC[C@@H]3c4ccc(OS(=O)(=O)O)cc4CC[C@H]3[C@@H]1CCC2=O [Estrone-3-sulfate]
- Transport through Caco-2 AB (Papp), reference compounds: 0.44 ± 0.03 ×10⁻⁶ cm/s
- Transport through Caco-2 Efflux ratio, reference compounds: 26.5±3.5
- Transport through Caco-2 BA (Papp), reference compounds (human): 11 ± 0.94 ×10⁻⁶ cm/s
- Papp AB reported ([2]; not told): 2.7 ×10⁻⁶ cm/s
- Papp BA reported ([2]; not told): 17.5 ×10⁻⁶ cm/s

SMILES: Cc1nc2c([nH]1)c(=O)n(C)c(=O)n2Cc1ccco1 [Furafylline]
- inhibition at 2 µM (CYP1A2): 61%

SMILES: O=C1NC(=O)C(c2ccccc2)(c2ccccc2)N1 [Phenytoin]
- fraction unbound at 4 h, 5 μM [6]: 0.167

SMILES: COc1cc2nc(N3CCN(C(=O)c4ccco4)CC3)nc(N)c2cc1OC [Prazosin]
- Hepatocyte stability (remaining after 2 h), reference compounds [7]: 70.2%
- solubility (physchem): 63.8 µM (≈ 24.5 µg/mL)

SMILES: CC(=O)[C@H]1CC[C@H]2[C@@H]3CCC4=CC(=O)CC[C@]4(C)[C@H]3CC[C@]12C [Progesterone]
- solubility (Solubility in PBS): 8 µM (≈ 2.52 µg/mL)

SMILES: C=C[C@H]1C[N@@]2CC[C@H]1C[C@@H]2[C@@H](O)c1ccnc2ccc(OC)cc12 [Quinidine]
- inhibition at 0.0073 µM (CYP2D6): 69%

SMILES: Nc1ccc(S(=O)(=O)Nc2ccnn2-c2ccccc2)cc1 [Sulfaphenazole]
- inhibition at 0.37 µM (CYP2C9): 43%

SMILES: C[C@]12CC[C@H]3[C@@H](CCC4=CC(=O)CC[C@@]43C)[C@@H]1CC[C@@H]2O [Testosterone]
- half-life (Microsomal stability; human, microsomes): 15.3 min
- microsomal CLint (Microsomal stability; human, microsomes): 55.6 µL/min/mg
- Microsomal stability (remaining after 1 h), reference compound (Microsomal stability; tested in parallel): 6.5%

SMILES: C[C@@H]1CC[C@H]2[C@@H](C)C(=O)O[C@@H]3O[C@@]4(C)CC[C@@H]1[C@]32OO4 [artemisinin]
- effect on protein aggregation (ThT fluorescence) [8]: did not have an observable effect
- IC50 [9, 12]: 10.8 nM

SMILES: O=C1C(O)=C([C@H]2CC[C@H](c3ccc(Cl)cc3)CC2)C(=O)c2ccccc21 [atovaquone]
- effect on protein aggregation (ThT fluorescence) [8]: did not have an observable effect
- IC50 [9, 12]: 1 nM

SMILES: CCN(CC)CCCC(C)Nc1ccnc2cc(Cl)ccc12 (stereo not shown) [chloroquine]
- effect on protein aggregation (ThT fluorescence) [8]: reduce protein aggregation
- IC50 ([5]; Table S2, ref 10 (supplement list), read-out: IC50 P. falciparum (3D7) blood stages, reference compound): 29.7 ± 6 nM
- IC50 ([9]; read-out: in vitro IC50 as determined in our experimental setting): 7 nM

SMILES: COc1cc(NC(C)CCCN)c2ncccc2c1 (stereo not shown) [primaquine]
- effect on protein aggregation (ThT fluorescence) [8]: reduce protein aggregation
- IC50 ([10]; Table S2, ref 10 (supplement list), read-out: IC50 P. falciparum early/stage V gametocytes, reference compound): 18900 ± 2000 nM
- IC50 ([10]; stage IV-V gametocytes, read-out: IC50 for P. falciparum gametocytes (primaquine)): ~20000 nM
- IC50 [11]: ~10000 nM
- IC50 [9, 12]: 3000 nM
